{"source": "paper PMC6915728", "about": "(Nature Communications, 2019)", "key": {"[1]": {"tested_on": "E. coli K12 BW25113 carrying the pooled ASKA overexpression plasmid library (~4400 ORFs)", "assay": "Chemical-genetic profiling: pooled competitive growth of the ASKA gene-overexpression library with and without AMP, deep sequencing readout", "type": "cell-based, Escherichia coli", "conditions": "overexpressed gene aaaD; presence vs absence of AMP; average of biological replicates", "source_text": "We generated chemical-genetic interaction profiles for a diverse set of AMPs (Table 1) by screening them against a comprehensive library of gene overexpressions in E. coli[21]. Increasing gene dosage is a widely applied approach to reveal the targets of small-molecule antibiotics[22],[23]. It also informs on the ‘latent resistome’, that is, the collection of genes where a change from native expression level enhances resistance to a particular drug[24]. We applied a sensitive competition assay by monitoring growth of a pooled plasmid library, overexpressing all the E. coli ORFs (Fig. 1a), as we reported earlier. Specifically, E. coli cells carrying the pooled plasmid collection were grown in the presence or absence of one of the 15 AMPs tested, at a sub-inhibitory concentration that increased the doubling time of the whole population by 2-fold. Following 12 generations of growth, the plasmid pool was isolated from each selection and the relative abundance of each plasmid was determined by a deep sequencing readout (see Methods).\nWe carried out chemical-genetic profiling to determine the impact of the overexpression of each E. coli ORF on bacterial susceptibility to each of the 15 different AMPs. To this end, we used the complete set of E. coli K-12 Open Reading Frame Archive (ASKA) plasmid library (GFP minus) where each E. coli ORF is cloned into a high copy number expression plasmid (pCA24N-ORFGFP(-)). Prior to screening, the ASKA library was grown in the original host strain E. coli K-12 AG1 in 96-well plates (growth conditions: 37 °C, 280 rpm, LB medium). An equal aliquot of each member of the ASKA library (each well of the 96-well plates) was pooled together and the plasmid DNA (pCA24N-ORF-GFP(-)) was isolated and transformed into E. coli K12 BW25113 strain[51]. To obtain a negative control strain not having any overexpressed gene, the plasmid without a cloned ORF (pCA24N-noORF) was also transformed into the same E. coli strain. Then, on the pooled collection, we applied a previously reported competitive growth assay. Specifically, the pooled overexpression library and the control strain were grown in parallel in MS medium supplemented with 20 µg per ml chloramphenicol and the overexpression was induced by 100 µM isopropyl-ß-D-thiogalactopyranoside (IPTG). After 1 h induction, ~5 × 10^5 bacterial cells from the library were inoculated into each well of a 96-well microtiter plate containing a concentration gradient of an AMP in the MS medium supplemented with 20 µg per ml chloramphenicol and 100 µM IPTG. At the same time, both the library and the control strain with the empty plasmid were grown in the absence of any AMPs. We took special care to grow both of these samples in the exact same conditions as the samples in the presence of AMPs. Bacterial growth was monitored in a microplate reader (Biotek Synergy 2) for 24 h. At the end of the exponential growth phase, we selected those wells in which the doubling time of the cell population was increased by 2-fold. Then, from these wells, cells were split into four equal proportion and each was transferred into 20 mL of MS medium supplemented with the corresponding AMP in four different concentrations in the range that slowed down growth by two-fold in the microtitre plate. […] The rationale for this 2-step process was to maintain competition in exponential phase for 12 generations of growth, efficiently control the growth rate in a reproducible manner and obtain the plasmid pool with standard DNA isolation protocol (innuPREP plasmid mini Kit, Analytik Jena AG) in a yield that is enough for the downstream analysis. The cultures were vigorously shaken along the entire protocol to make sure that the cultures are completely homogeneous and therefore biasing interactions between clones (such as trans-resistance) was minimized. […]"}, "[2]": {"tested_on": "E. coli gene overexpression", "conditions": "gene prfA overexpressed; ref 11 (Matsumoto et al. 2017); cited from earlier work", "source_text": "Supplement 41467_2019_13618_MOESM1_ESM.docx, table 1: Supplementary Table 1. Collected examples of E. coli gene overexpression from the literature as a confirmation of our chemical-genetic screen results. | column: Overexpression phenotype"}, "[3]": {"tested_on": "E. coli BW25113 overexpression strains (ASKA plasmids)", "assay": "Minimum inhibitory concentration (MIC), serial broth dilution, single-gene overexpression strains vs empty-vector control", "type": "cell-based, Escherichia coli", "conditions": "broth dilution, MS medium, 100 µM IPTG, 30 °C, 20-24 h, OD600, 3 replicates", "procedure": "Minimum inhibitory concentrations (MIC) were determined with a standard serial broth dilution technique with a minor modification. Specifically, instead of a two-fold dilution series, smaller AMP concentration steps were used (typically 1.2-fold) for two reasons. […] Second, gene overexpressions caused typically only small changes in the MICs of AMPs and therefore higher resolution was required. The protocol was as follows. From a stock solution of an AMP, 12-steps serial dilution was prepared in fresh MS medium in 96-well microtiter plates. Each AMP was represented in 11 different concentrations (3 wells per AMP concentration per strain). Three wells contained only medium to check the growth in the absence of AMP. After overnight growth in MS medium supplemented with chloramphenicol, bacterial strains were diluted 20-fold into fresh MS medium and grown until the cell density reached OD600 ~1. Cells were induced by 100 µM of IPTG and incubated for 1 h at 30 °C with continuous shaking at 300 rpm. Following incubation, approximately half-million cells were inoculated into the wells of the 96-well microtiter plate with a 96‐pin replicator. We used three independent replicates for each strain and the corresponding control. Two rows in the 96-well plate contained only MS medium in order to obtain the background OD value of the medium. Plates were incubated at 30 °C with continuous shaking at 300 rpm. After 20–24 h of incubation, OD600 values were measured in a microplate reader (Biotek Synergy 2)."}, "[4]": {"tested_on": "bacterial species in which the gene showed activity", "conditions": "cited from earlier work"}}, "note": "Like-named read-outs stand apart in the source and are kept apart here. Ends that are not written are not given here."}
{"substance": "GNNRPVYIPQPRPPHPRL [AP, Apidaecin IB, antimicrobial peptide, source Apis mellifera L; cluster C3]", "values": [{"measurement": "Chemical-genetic score", "setting": "[1]", "value": -0.578, "unit": "log2 fold change"}, {"measurement": "Overexpression phenotype, Literature", "setting": "[2]", "value": "Resistance^11"}, {"measurement": "Relative MIC", "setting": "[3]; overexpression strain cvpA, MIC of overexpression strain / MIC of empty-plasmid control", "value": 0.64}, {"measurement": "Relative MIC", "setting": "[3]; overexpression strain gadW, MIC of overexpression strain / MIC of empty-plasmid control", "value": 2.5}, {"measurement": "Relative MIC", "setting": "[3]; overexpression strain lptB, MIC of overexpression strain / MIC of empty-plasmid control", "value": 0.64}, {"measurement": "Relative MIC", "setting": "[3]; overexpression strain mlaD, MIC of the overexpression strain / MIC of the control strain (wild-type carrying the empty plasmid)", "value": 0.6}]}
{"substance": "polymyxin E", "values": [{"measurement": "Gene that modulates bacterial susceptibility to the AMP", "setting": "[4]; Bordetella pertussis, ref http://www.ncbi.nlm.nih.gov/pmc/articles/PMC4136009/", "value": "lgmA, IgmB, IgmC"}]}
{"substance": "protegrin", "values": [{"measurement": "Gene that modulates bacterial susceptibility to the AMP", "setting": "[4]; Salmonella typhimurium, Salmonella typhi, ref http://www.sciencedirect.com/science/article/pii/S009286740081750X", "value": "pagP"}]}
{"substance": "protegrin-1 (RGGRLCYCRRRFCVCVGR; ends and bridges not checked; cysteine pairing not given here; UniProt P32194 131-148, looked up)", "values": [{"measurement": "Gene that modulates bacterial susceptibility to the AMP", "setting": "[4]; Neisseria meningitidis, Neisseria gonorrhoeae, ref http://www.ncbi.nlm.nih.gov/pmc/articles/PMC1196002/", "value": "mtrC, mtrD, mtrE"}, {"measurement": "Gene that modulates bacterial susceptibility to the AMP", "setting": "[4]; Neisseria meningitidis, ref https://www.ncbi.nlm.nih.gov/pmc/articles/PMC1196002/", "value": "lptA"}, {"measurement": "Gene that modulates bacterial susceptibility to the AMP", "setting": "[4]", "value": "pgtE"}]}
